# In US9238656B2, “Imidazo[4,5-b]pyridine derivatives as ALK and JAK modulators for the treatment of proliferative disorders” (priority 2012, dated 2016):
# Structures can show the parent of a compound that is named as a salt.
# Assays:
# [1] = molecular target: baculovirus-expressed ALK (Homo sapiens, UniProt Q9UM73); assay: ALK kinase inhibition, TRF/ELISA; type: biochemical; conditions: read-out: ALK Potency
# How it was run: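 Plates were coated with GST-PLC-γ substrate (10 μg/mL) and the reaction was started with 30 ng/mL ALK, running 15 min at 37° C. Phosphotyrosine was detected by time-resolved fluorescence with Eu-labeled PT66 antibody. IC50s came from variable-slope sigmoidal fits of percent inhibition versus log concentration.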
# [2] = molecular target: baculovirus-expressed JAK2 kinase (Homo sapiens, UniProt O60674); assay: biochemical; conditions: 0.2 μM ATP; read-out: JAK2 Potency
# How it was run: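 Time-resolved fluorescence kinase assay using 15 ng/mL baculovirus-expressed JAK2 on Neutravidin-captured biotinylated 15-mer peptide substrate, reaction 20 min at room temperature. IC50 from percent inhibition versus log concentration, sigmoidal variable-slope fit.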
# baculovirus-expressed JAK2 kinase, sequence (O60674 whole entry): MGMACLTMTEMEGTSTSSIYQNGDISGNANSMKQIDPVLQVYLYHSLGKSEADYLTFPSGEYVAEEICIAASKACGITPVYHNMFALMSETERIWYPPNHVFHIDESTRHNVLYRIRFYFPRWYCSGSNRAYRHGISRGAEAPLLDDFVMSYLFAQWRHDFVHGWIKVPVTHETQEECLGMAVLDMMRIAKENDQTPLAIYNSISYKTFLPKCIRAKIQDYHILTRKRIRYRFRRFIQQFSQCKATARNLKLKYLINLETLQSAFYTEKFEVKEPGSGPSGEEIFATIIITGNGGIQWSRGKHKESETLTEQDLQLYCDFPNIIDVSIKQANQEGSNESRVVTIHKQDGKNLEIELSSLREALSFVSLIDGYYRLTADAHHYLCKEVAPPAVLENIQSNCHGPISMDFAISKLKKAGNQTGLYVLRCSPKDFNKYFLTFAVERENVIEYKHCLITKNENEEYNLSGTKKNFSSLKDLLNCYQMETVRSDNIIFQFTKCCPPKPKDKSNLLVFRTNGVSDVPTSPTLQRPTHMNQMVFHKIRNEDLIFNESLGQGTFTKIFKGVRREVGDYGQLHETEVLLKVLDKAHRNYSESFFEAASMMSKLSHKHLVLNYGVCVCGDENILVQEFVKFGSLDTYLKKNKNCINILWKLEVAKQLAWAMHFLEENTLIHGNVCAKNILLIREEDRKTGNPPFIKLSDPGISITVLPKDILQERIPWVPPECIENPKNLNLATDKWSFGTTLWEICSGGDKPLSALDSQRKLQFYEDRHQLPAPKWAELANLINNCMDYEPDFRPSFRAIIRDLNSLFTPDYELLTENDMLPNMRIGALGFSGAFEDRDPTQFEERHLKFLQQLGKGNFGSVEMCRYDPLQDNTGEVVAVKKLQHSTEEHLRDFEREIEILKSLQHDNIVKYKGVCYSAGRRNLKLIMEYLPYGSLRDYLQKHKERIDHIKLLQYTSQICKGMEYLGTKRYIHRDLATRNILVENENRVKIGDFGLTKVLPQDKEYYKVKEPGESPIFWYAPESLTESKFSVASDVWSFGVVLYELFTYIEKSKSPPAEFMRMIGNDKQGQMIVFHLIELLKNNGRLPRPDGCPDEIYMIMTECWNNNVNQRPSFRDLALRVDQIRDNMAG
# baculovirus-expressed ALK, sequence (Q9UM73 19-1620): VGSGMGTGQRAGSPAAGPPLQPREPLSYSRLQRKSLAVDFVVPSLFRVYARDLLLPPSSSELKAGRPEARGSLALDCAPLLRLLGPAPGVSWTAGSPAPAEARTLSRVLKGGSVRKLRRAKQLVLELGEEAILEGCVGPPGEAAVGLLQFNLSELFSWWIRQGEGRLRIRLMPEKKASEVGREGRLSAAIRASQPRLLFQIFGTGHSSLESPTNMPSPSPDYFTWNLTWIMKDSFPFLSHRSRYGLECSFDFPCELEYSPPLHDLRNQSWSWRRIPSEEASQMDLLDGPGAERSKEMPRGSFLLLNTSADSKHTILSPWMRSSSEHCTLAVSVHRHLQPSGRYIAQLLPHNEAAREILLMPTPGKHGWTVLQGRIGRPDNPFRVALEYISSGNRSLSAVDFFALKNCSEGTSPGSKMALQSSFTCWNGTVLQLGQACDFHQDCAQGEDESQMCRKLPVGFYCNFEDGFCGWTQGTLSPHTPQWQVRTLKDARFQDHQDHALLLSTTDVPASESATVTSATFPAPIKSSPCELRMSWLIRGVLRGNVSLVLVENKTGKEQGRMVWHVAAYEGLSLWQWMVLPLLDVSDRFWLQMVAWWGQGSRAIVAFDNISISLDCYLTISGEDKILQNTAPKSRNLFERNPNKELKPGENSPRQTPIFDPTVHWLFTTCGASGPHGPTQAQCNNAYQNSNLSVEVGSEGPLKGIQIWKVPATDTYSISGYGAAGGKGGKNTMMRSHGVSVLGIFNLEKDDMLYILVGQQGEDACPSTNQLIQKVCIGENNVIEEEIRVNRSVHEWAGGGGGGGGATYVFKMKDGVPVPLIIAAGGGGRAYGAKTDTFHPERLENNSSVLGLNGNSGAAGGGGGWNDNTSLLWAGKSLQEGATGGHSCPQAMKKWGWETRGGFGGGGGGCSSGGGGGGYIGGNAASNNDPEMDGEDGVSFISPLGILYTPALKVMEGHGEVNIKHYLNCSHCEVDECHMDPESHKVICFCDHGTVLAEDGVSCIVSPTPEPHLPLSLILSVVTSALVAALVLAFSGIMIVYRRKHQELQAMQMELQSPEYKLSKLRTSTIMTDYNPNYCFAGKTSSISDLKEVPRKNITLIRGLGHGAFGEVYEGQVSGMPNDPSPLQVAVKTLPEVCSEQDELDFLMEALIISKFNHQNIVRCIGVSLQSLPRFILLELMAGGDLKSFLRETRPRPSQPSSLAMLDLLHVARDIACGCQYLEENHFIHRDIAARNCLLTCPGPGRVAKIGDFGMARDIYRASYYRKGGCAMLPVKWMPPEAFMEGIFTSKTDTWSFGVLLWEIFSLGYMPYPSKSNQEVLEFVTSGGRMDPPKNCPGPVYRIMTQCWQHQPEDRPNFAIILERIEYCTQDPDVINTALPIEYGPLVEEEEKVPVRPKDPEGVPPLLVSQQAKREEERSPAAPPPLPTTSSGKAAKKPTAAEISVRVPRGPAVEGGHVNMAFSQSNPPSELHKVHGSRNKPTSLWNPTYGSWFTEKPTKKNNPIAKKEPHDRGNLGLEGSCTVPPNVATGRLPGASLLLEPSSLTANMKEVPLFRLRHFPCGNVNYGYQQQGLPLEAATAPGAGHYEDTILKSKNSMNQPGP
Compound,IC50 [1] [nM],IC50 [2] [nM]
"N#Cc1ccc(-c2nc3c(N[C@H]4[C@@H](C(N)=O)[C@@H]5C=C[C@H]4C5)c(Cl)cnc3[nH]2)cc1 [Compound CXLV, (1S,2S,3R,4R)-3-[6-Chloro-2-(4-cyano-phenyl)-3H-imidazo[4,5-b]pyridin-7-ylamino]-bicyclo[2.2.1]hept-5-ene-2-carboxylic acid amide]",100 to 1000,< 100
"NC(=O)[C@@H]1[C@H](Nc2c(Br)cnc3[nH]c(-c4ccc5c(c4)CCC4(CCNCC4)O5)nc23)[C@H]2C=C[C@@H]1C2 [Compound CXIV, (1S,2S,3R,4R)-3-[(6-bromo-2-spiro[chromane-2,4′-piperidine]-6-yl-3H-imidazo[4,5-b]pyridin-7-yl)amino]bicyclo[2.2.1]hept-5-ene-2-carboxamide]",< 100,< 100
"Cc1cc(N2CCOCC2)ccc1-c1nc2c(N[C@H]3[C@@H](C(N)=O)[C@@H]4C=C[C@H]3C4)c(Cl)cnc2[nH]1 [Compound CXXI, (1S,2S,3R,4R)-3-[6-Chloro-2-(2-methyl-4-morpholin-4-yl-phenyl)-3H-imidazo[4,5-b]pyridin-7-ylamino]-bicyclo[2.2.1]hept-5-ene-2-carboxylic acid amide]",100 to 1000,< 100
"NC(=O)[C@@H]1[C@H](Nc2c(Cl)cnc3[nH]c(-c4ccc(OCC(=O)O)cc4)nc23)[C@H]2C=C[C@@H]1C2 [Compound CCXLVI, 2-(4-(7-((1R,2R,3S,4S)-3-carbamoylbicyclo[2.2.1]hept-5-en-2-ylamino)-6-chloro-3H-imidazo[4,5-b]pyridin-2-yl)phenoxy)acetic acid]",100 to 1000,< 100
"CN1CCN(Cc2ccc(-c3nc4c(N[C@@H]5CCCC[C@H]5NS(C)(=O)=O)c(Cl)cnc4[nH]3)cc2)CC1 [CCLIV, N-((1R,2R)-2-{6-Chloro-2-[4-(4-methyl-piperazin-1-ylmethyl)-phenyl]-3H-imidazo[4,5-b]pyridin-7-ylamino}-cyclohexyl)-methanesulfonamide]",< 100,< 100
"CC(C)NC(=O)[C@@H]1[C@H](Nc2c(Cl)cnc3[nH]c(-c4sc(N5CCOCC5)nc4Cl)nc23)[C@H]2C=C[C@@H]1C2 [Compound CLXIII, (1S,2S,3R,4R)-3-[6-Chloro-2-(4-chloro-2-morpholin-4-yl-thiazol-5-yl)-3H-imidazo[4,5-b]pyridin-7-ylamino]-bicyclo[2.2.1]hept-5-ene-2-carboxylic acid isopropylamide]",< 100,> 10000
"NC(=O)[C@@H]1[C@H](Nc2c(Cl)cnc3[nH]c(-c4cccc(Cl)c4)nc23)[C@H]2C=C[C@@H]1C2 [Compound CXL, (1S,2S,3R,4R)-3-[6-Chloro-2-(3-chloro-phenyl)-3H-imidazo[4,5-b]pyridin-7-ylamino]-bicyclo[2.2.1]hept-5-ene-2-carboxylic acid amide]",100 to 1000,< 100
"COc1cc(N2CCOCC2)ccc1-c1nc2c(NC34CCC(C)(C(=O)C3)C4(C)C)c(Cl)cnc2[nH]1 (stereo not shown) [Compound CC, 4-(6-chloro-2-(2-methoxy-4-morpholinophenyl)-3H-imidazo[4,5-b]pyridin-7-ylamino)-1,7,7-trimethylbicyclo[2.2.1]heptan-2-one]",100 to 1000,100 to 1000
"COc1cc(N2CCOCC2)ccc1-c1nc2c(NC34CCC(C)(C(O)C3)C4(C)C)c(Cl)cnc2[nH]1 (stereo not shown) [Compound CCIII, 4-(6-chloro-2-(2-methoxy-4-morpholinophenyl)-3H-imidazo[4,5-b]pyridin-7-ylamino)-1,7,7-trimethylbicyclo[2.2.1]heptan-2-ol]",100 to 1000,100 to 1000
"CN1CCC(c2nc3c(N[C@H]4[C@@H](C(N)=O)[C@@H]5C=C[C@H]4C5)c(Cl)cnc3[nH]2)CC1 [Compound CL, (1S,2S,3R,4R)-3-[6-Chloro-2-(1-methyl-piperidin-4-yl)-3H-imidazo[4,5-b]pyridin-7-ylamino]-bicyclo[2.2.1]hept-5-ene-2-carboxylic acid amide]",1000 to 10000,> 10000
"NC(=O)[C@@H]1[C@H](Nc2c(Cl)cnc3[nH]c(-c4ccc(F)cc4)nc23)[C@H]2C=C[C@@H]1C2 [Compound CXXIX, (1S,2S,3R,4R)-3-[6-Chloro-2-(4-fluoro-phenyl)-3H-imidazo[4,5-b]pyridin-7-ylamino]-bicyclo[2.2.1]hept-5-ene-2-carboxylic acid amide]",100 to 1000,< 100
"Cc1nn(C)c(N2CCOCC2)c1-c1nc2c(N[C@H]3[C@@H](C(N)=O)[C@@H]4C=C[C@H]3C4)c(Cl)cnc2[nH]1 [Compound CXXII, (1S,2S,3R,4R)-3-[6-Chloro-2-(1,3-dimethyl-5-morpholin-4-yl-1H-pyrazol-4-yl)-3H-imidazo[4,5-b]pyridin-7-ylamino]-bicyclo[2.2.1]hept-5-ene-2-carboxylic acid amide]",1000 to 10000,1000 to 10000
"NC(=O)[C@@H]1[C@H](Nc2c(Cl)cnc3[nH]c(-c4cn5c(n4)CCCC5)nc23)[C@H]2C=C[C@@H]1C2 [Compound CCXIII, (1S,2S,3R,4R)-3-(6-chloro-2-(5,6,7,8-tetrahydroimidazo[1,2-a]pyridin-2-yl)-3H-imidazo[4,5-b]pyridin-7-ylamino)bicyclo[2.2.1]hept-5-ene-2-carboxamide]",100 to 1000,< 100

# Now from value to compound:
IC50 [1] [nM],IC50 [2] [nM],Compound
> 10000,1000 to 10000,"COc1cc(N2CCOCC2)ccc1-c1nc2c(N3C[C@@H]4C[C@H]3CN4C(=O)OC(C)(C)C)c(Cl)cnc2[nH]1 [Compound XXXVI, (1S,4S)-5-[6-Chloro-2-(2-methoxy-4-morpholinj-4-yl-phenyl)-3H-imidazol-[4,5-b]pyridine-7-yl]-2,5-diaza-bicyclo[2.2.1]heptane-2-carboxylic acid tert-butyl ester]"
100 to 1000,< 100,"NC(=O)CN1CCC(n2cc(-c3nc4c(N[C@H]5[C@@H](C(N)=O)[C@@H]6C=C[C@H]5C6)c(Cl)cnc4[nH]3)cn2)CC1 [Compound LXVI, (1S,2S,3R,4R)-3-{2-[1-(1-Carbamoylmethyl-piperidin-4-yl)-1H-pyrazol-4-yl]-6-chloro-3H-imidazo[4,5-b]pyridine-7-ylamino}-bicyclo[2.2.1]hept-5-ene-2-carboxylic acid amide, trifluoroacetic acid salt]"
< 100,< 100,"COc1cc(CN2CCOCC2)ccc1Nc1nc2c(N[C@H]3[C@@H](C(N)=O)[C@@H]4C=C[C@H]3C4)c(Cl)cnc2[nH]1 [Compound LXIX, (1S,2S,3R,4R)-3-[6-Chloro-2-(2-methoxy-4-morpholin-4-ylmethyl-phenylamino)-3H-imidazo[4,5-b]pyridine-7-ylamino]-bicyclo[2.2.1]hept-5-ene-2-carboxylic acid amide]"
< 100,< 100,"NC(=O)[C@@H]1[C@H](Nc2c(Br)cnc3[nH]c(-c4ccc(N5CCOCC5)cc4Cl)nc23)[C@H]2C=C[C@@H]1C2 [Compound CXXXIV, (1S,2S,3R,4R)-3-[6-Bromo-2-(2-chloro-4-morpholin-4-yl-phenyl)-3H-imidazo[4,5-b]pyridin-7-ylamino]-bicyclo[2.2.1]hept-5-ene-2-carboxylic acid amide]"
< 100,1000 to 10000,"COc1cc(CN2CC[C@@H](O)C2)ccc1-c1nc2c(N[C@@H]3CCCC[C@H]3NS(C)(=O)=O)c(Cl)cnc2[nH]1 [Compound LXXV, N-((1R,2R)-2-{6-Chloro-2-[4-((R)-3-hydroxy-pyrrolidin-1-ylmethyl)-2-methoxy-phenyl]-3H-imidazo[4,5-b]pyridine-7-ylamino}-cyclohexyl)-methanesulfonamide]"
< 100,< 100,"COc1cc(C2=CCN(C[C@H](C)O)CC2)ccc1-c1nc2c(N[C@H]3[C@@H](C(N)=O)[C@@H]4C=C[C@H]3C4)c(Cl)cnc2[nH]1 [Compound XLVIII, (1S,2S,3R,4R)-3-(6-Chloro-2-[4-[1((S)-2-hydroxypropyl)-1,2,3,6-tetrahydro-pyridin-4-yl]-2-methoxyphenyl]-3H-imidazo[4,5-b]pyridine-7-ylamino)-bicyclo[2.2.1]hept-5-ene-2-carboxylic acid amide]"
100 to 1000,< 100,"NC(=O)[C@@H]1[C@H](Nc2c(Cl)cnc3[nH]c(-c4ccccc4F)nc23)[C@H]2C=C[C@@H]1C2 [Compound CXXVII, (1S,2S,3R,4R)-3-[6-Chloro-2-(2-fluoro-phenyl)-3H-imidazo[4,5-b]pyridin-7-ylamino]-bicyclo[2.2.1]hept-5-ene-2-carboxylic acid amide]"
1000 to 10000,< 100,"NC(=O)[C@@H]1[C@H](Nc2c(Br)cnc3[nH]c(-c4ccc(C(F)(F)F)nc4)nc23)[C@H]2C=C[C@@H]1C2 [Compound CXXXIX, (1S,2S,3R,4R)-3-[6-Bromo-2-(6-trifluoromethyl-pyridin-3-yl)-3H-imidazo[4,5-b]pyridin-7-ylamino]-bicyclo[2.2.1]hept-5-ene-2-carboxylic acid amide]"
100 to 1000,> 10000,"COc1ccc(CN2CCOCC2)cc1-c1nc2c(N[C@@H]3CCCC[C@H]3NS(C)(=O)=O)c(Cl)cnc2[nH]1 [Compound LXXIV, N-{(1R,2R)-2-[6-Chloro-2-(2-methoxy-5-morpholin-4-ylmethyl-phenyl)-3H-imidazo[4,5-b]pyridine-7-ylamino]-cyclohexyl}-methanesulfonamide]"
100 to 1000,< 100,"CN(C)c1cccc(-c2nc3c(N[C@H]4[C@@H](C(N)=O)[C@@H]5C=C[C@H]4C5)c(Cl)cnc3[nH]2)c1 [Compound XII, (1S,2S,3R,4R)-3-[6-Chloro-2-(3-dimethylamino-phenyl)-3H-imidazo[4,5-b]pyridin-7-ylamino]-bicyclo[2.2.1]hept-5-ene-2-carboxylic acid amide]"
